From paper PMC11571207, “Stereorandomized Oncocins with Preserved Ribosome Binding and Antibacterial Activity” (Journal of Medicinal Chemistry, 2024)
No end group written: not given here.

Experiments:
E. coli W3110 = assay: microbe, parasite or virus in culture; details: for MIC E. coli, 12.5% MHB / MIC E. coli, Full MHB: E. coli W3110, 16–20 h at 37 °C, broth microdilution; for MIC E. coli, 12.5% MHB: 12.5% Müller–Hinton medium; for MIC E. coli, Full MHB: full Müller–Hinton medium; for MIC E. coli W3110: supplement CSV
Outline: (§1)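 Read-out was visible growth after MTT addition, the MIC being the lowest inhibitory peptide concentration. Bacteria grown to log phase in LB were exposed in MH medium to peptide from 64 μg/mL in twofold dilutions for 15-18h at 37°C.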

K. pneumoniae NCTC 418 = assay: microbe, parasite or virus in culture; details: for MIC K. pneumoniae, 12.5% MHB / MIC K. pneumoniae, Full MHB: K. pneumoniae NCTC 418, 16–20 h at 37 °C; for MIC K. pneumoniae, 12.5% MHB: 12.5% Müller–Hinton medium; for MIC K. pneumoniae, Full MHB: full Müller–Hinton medium; for MIC K. pneumoniae NCTC418: supplement CSV
Outline: as §1

A. baumannii ATCC19606 = assay: microbe, parasite or virus in culture; details: for MIC A. baumannii, 12.5% MHB / MIC A. baumannii, Full MHB: A. baumannii ATCC19606, 16–20 h at 37 °C; for MIC A. baumannii, 12.5% MHB: 12.5% Müller–Hinton medium; for MIC A. baumannii, Full MHB: full Müller–Hinton medium; for MIC A. baumannii ATCC19606: supplement CSV
Outline: as §1

S. aureus COL (MRSA) = assay: microbe, parasite or virus in culture; details: for MIC S. aureus, 12.5% MHB / MIC S. aureus, Full MHB: S. aureus COL (MRSA), 16–20 h at 37 °C; for MIC S. aureus, 12.5% MHB: 12.5% Müller–Hinton medium; for MIC S. aureus, Full MHB: full Müller–Hinton medium; for MIC S. aureus COL (MRSA): supplement CSV
Outline: as §1

P. aeruginosa PAO1 = assay: microbe, parasite or virus in culture; details: for MIC P. aeruginosa, 12.5% MHB / MIC P. aeruginosa, Full MHB: P. aeruginosa PAO1, 16–20 h at 37 °C; for MIC P. aeruginosa, 12.5% MHB: 12.5% Müller–Hinton medium; for MIC P. aeruginosa, Full MHB: full Müller–Hinton medium; for MIC P. aeruginosa PAO1: supplement CSV
Outline: as §1

human red blood cells = assay: Hemolysis assay, minimum hemolytic concentration; details: for Haemolysis on hRBC, MHC: 2.5% human red blood cells (final) in 10 mM phosphate, 150 mM NaCl, pH 7.4, 25 °C, 4 h, visual inspection; for MHC human red blood cells: supplement CSV

Sequence	MIC E. coli, 12.5% MHB (E. coli W3110) [µg/mL]	MIC E. coli, Full MHB (E. coli W3110) [µg/mL]	MIC E. coli W3110 (E. coli W3110; 12.5% MH pH 7.4) [µg/mL]	MIC E. coli W3110 (E. coli W3110; full MH pH 7.4) [µg/mL]	MIC K. pneumoniae, 12.5% MHB (K. pneumoniae NCTC 418) [µg/mL]	MIC K. pneumoniae, Full MHB (K. pneumoniae NCTC 418) [µg/mL]	MIC K. pneumoniae NCTC418 (K. pneumoniae NCTC 418; 12.5% MH pH 7.4) [µg/mL]	MIC K. pneumoniae NCTC418 (K. pneumoniae NCTC 418; full MH pH 7.4) [µg/mL]	MIC A. baumannii, 12.5% MHB (A. baumannii ATCC19606) [µg/mL]	MIC A. baumannii, Full MHB (A. baumannii ATCC19606) [µg/mL]	MIC A. baumannii ATCC19606 (A. baumannii ATCC19606; 12.5% MH pH 7.4) [µg/mL]	MIC A. baumannii ATCC19606 (A. baumannii ATCC19606; full MH pH 7.4) [µg/mL]	MIC S. aureus, 12.5% MHB (S. aureus COL (MRSA))	MIC S. aureus, Full MHB (S. aureus COL (MRSA))	MIC S. aureus COL (MRSA) (S. aureus COL (MRSA); 12.5% MH pH 7.4) [µg/mL]	MIC S. aureus COL (MRSA) (S. aureus COL (MRSA); full MH pH 7.4) [µg/mL]	MIC P. aeruginosa, 12.5% MHB (P. aeruginosa PAO1) [µg/mL]	MIC P. aeruginosa, Full MHB (P. aeruginosa PAO1) [µg/mL]	MIC P. aeruginosa PAO1 (P. aeruginosa PAO1; 12.5% MH pH 7.4) [µg/mL]	MIC P. aeruginosa PAO1 (P. aeruginosa PAO1; full MH pH 7.4) [µg/mL]	further results
VDKPPYLPRPRPPRRIYNR [sr10Cterm-Onc] (VDKPPYLPRPRPPRRIYNR-NH2; also: residues 10-19 stereorandomized (1:1 L/D mixture))	4	16	4	16	4	8	4	8	4	64	4	64	32 µg/mL	> 64 µg/mL	32	>64	8	64	8	64	Haemolysis on hRBC, MHC (human red blood cells): >1000 µg/mL; MHC human red blood cells (human red blood cells): >1000 µg/mL
VDKPPYLPRPRPPRRIYNR [sr11Cterm-Onc] (VDKPPYLPRPRPPRRIYNR-NH2; also: residues 9-19 stereorandomized (1:1 L/D mixture))	4	16	4	16	4	16	4	16	4	32	4	32	>64 / 64 μg/mL	>64 / 64 μg/mL	64	>64	8	> 64	8	>64	Haemolysis on hRBC, MHC (human red blood cells): >1000 µg/mL; MHC human red blood cells (human red blood cells): >1000 µg/mL
VDKPPYLPRPRPPRRIYNR [sr12Cterm-Onc] (VDKPPYLPRPRPPRRIYNR-NH2; also: residues 8-19 stereorandomized (1:1 L/D mixture))	8	16	8	16	8	16	8	16	8	32	8	32	>64 / 64 μg/mL	>64 / 64 μg/mL	64	>64	8	> 64	8	>64	Haemolysis on hRBC, MHC (human red blood cells): >1000 µg/mL; MHC human red blood cells (human red blood cells): >1000 µg/mL
VDKPPYLPRPRPPRRIYNR [srP45-Onc] (VDKPPYLPRPRPPRRIYNR-NH2; also: residues 4-5 (Pro-Pro) stereorandomized (1:1 L/D mixture))	4	16	4	16	8	16	8	16	8	64	8	64	>64 / 64 μg/mL	>64 / 64 μg/mL	64	>64	> 16	> 64	>16	>64	Haemolysis on hRBC, MHC (human red blood cells): >1000 µg/mL; MHC human red blood cells (human red blood cells): >1000 µg/mL
